Measured values as given in PubChem BioAssay (NCI).
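At the GI50, growth is halved. TGI marks complete inhibition of growth.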

Assays:
Assay in all cases: NCI-60 cell line screen, 384-well format
[1] = test system: COLO 205 colon
[2] = test system: T-47D breast
[3] = test system: EKVX NSCLC
[4] = test system: KM12 colon
[5] = test system: RXF 393 renal
[6] = test system: OVCAR-8 ovarian
[7] = test system: DU-145 prostate
[8] = test system: IGROV1 ovarian
[9] = test system: OVCAR-5 ovarian
[10] = test system: SNB-75 CNS
[11] = test system: CAKI-1 renal
[12] = test system: HT29 colon
[13] = test system: SK-MEL-28 melanoma
[14] = test system: NCI-H460 NSCLC
[15] = test system: BT-549 breast
[16] = test system: SF-268 CNS
[17] = test system: HCT-15 colon
[18] = test system: SNB-19 CNS
[19] = test system: MDA-MB-231 breast
[20] = test system: PC-3 prostate
[21] = test system: OVCAR-3 ovarian
[22] = test system: SF-539 CNS
[23] = test system: SF-295 CNS
[24] = test system: OVCAR-4 ovarian
[25] = test system: SW-620 colon
[26] = test system: HOP-92 NSCLC
[27] = test system: K-562 leukemia
[28] = test system: TK-10 renal
[29] = test system: UACC-62 melanoma
[30] = test system: U251 glioblastoma
[31] = test system: HCT-116 colon
[32] = test system: ACHN renal
[33] = test system: UACC-257 melanoma
[34] = test system: CCRF-CEM leukemia
[35] = test system: NCI-H226 lung
[36] = test system: UO-31 renal
[37] = test system: M14 melanoma
[38] = test system: MDA-MB-435 melanoma
[39] = test system: 786-0 renal
[40] = test system: LOX IMVI melanoma
[41] = test system: HS 578T breast
[42] = test system: MALME-3M melanoma
[43] = test system: NCI-H522 lung
[44] = test system: NCI-H322M lung
[45] = test system: RPMI-8226 leukemia
[46] = test system: SN12C renal
[47] = test system: A498 renal
[48] = test system: MDA-MB-468 breast
[49] = test system: SK-MEL-2 melanoma
[50] = test system: MCF7 breast
[51] = test system: A549 NSCLC
[52] = test system: HL-60(TB) leukemia
[53] = test system: SR leukemia
[54] = test system: HOP-62 NSCLC
[55] = test system: SK-OV-3 ovarian
[56] = test system: MOLT-4 leukemia
[57] = test system: SK-MEL-5 melanoma
[58] = test system: HCC-2998 colon
[59] = test system: NCI/ADR-RES ovarian
[60] = test system: NCI-H23 lung

In the case of `CC1(C)CCC(CN2CCN(c3ccc(C(=O)NS(=O)(=O)c4ccc(NCC5CCOCC5)c([N+](=O)[O-])c4)c(Oc4cnc5[nH]ccc5c4)c3)CC2)=C(c2ccc(Cl)cc2)C1`, the GI50 [1] is reported as 3.81 µM, the TGI [1] is reported as 6.68 µM and the GI50 [2] is reported as 5.12 µM. The TGI [2] was 8.12 µM, the GI50 [3] was 6.98 µM and the TGI [3] was 14.3 µM. The GI50 [4] was 5.75 µM, the TGI [4] was 8.84 µM and the GI50 [5] was 3.41 µM. The TGI [5] was 5.69 µM, the GI50 [6] was 4.44 µM and the TGI [6] was 7.43 µM. For the same molecule, the GI50 [7] was 5.66 µM, the TGI [7] was 18.5 µM and the GI50 [8] was 2.81 µM. For the same molecule, the TGI [8] was 7.24 µM, the GI50 [9] was 3.53 µM and the TGI [9] was 6.62 µM. For the same molecule, the GI50 [10] was 4.58 µM, the TGI [10] was 9.27 µM and the GI50 [11] was 5.47 µM. It also gave a TGI [11] of 11.7 µM, a GI50 [12] of 5.16 µM and a TGI [12] of 7.3 µM. For the same molecule, the GI50 [13] was 4.05 µM, the TGI [13] was 9.58 µM and the GI50 [14] was 4.46 µM. It also gave a TGI [14] of 7.85 µM, a GI50 [15] of 3.79 µM and a TGI [15] of 9.18 µM. For the same molecule, the GI50 [16] was 3.84 µM, the TGI [16] was 8.19 µM and the GI50 [17] was 5.11 µM. It also gave a TGI [17] of 9.19 µM, a GI50 [18] of 5.63 µM and a TGI [18] of 11 µM. For the same molecule, the GI50 [19] was 2.49 µM, the TGI [19] was 6.01 µM and the GI50 [20] was 4.61 µM. It also gave a TGI [20] of 12.2 µM, a GI50 [21] of 4.55 µM and a TGI [21] of 7.36 µM. For the same molecule, the GI50 [22] was 3.6 µM, the TGI [22] was 7.94 µM and the GI50 [23] was 3.98 µM. The TGI [23] was 7.88 µM, the GI50 [24] was 2.98 µM and the TGI [24] was 6.29 µM. The GI50 [25] was 6.09 µM, the TGI [25] was 7.57 µM and the GI50 [26] was 1.83 µM. The TGI [26] was 3.73 µM, the GI50 [27] was 2.13 µM and the TGI [27] was 4.28 µM. For the same molecule, the GI50 [28] was 6.84 µM, the TGI [28] was 12.4 µM and the GI50 [29] was 4.95 µM. It also gave a TGI [29] of 7.13 µM, a GI50 [30] of 5.89 µM and a TGI [30] of 9.82 µM. For the same molecule, the GI50 [31] was 4.46 µM, the TGI [31] was 11.8 µM and the GI50 [32] was 4.22 µM. It also gave a TGI [32] of 11.6 µM, a GI50 [33] of 5.19 µM and a TGI [33] of 7 µM. It also gave a GI50 [34] of 7.94 µM, a GI50 [35] of 7.08 µM and a TGI [35] of 10.6 µM. The GI50 [36] was 3.63 µM, the TGI [36] was 8 µM and the GI50 [37] was 3.51 µM. The TGI [37] was 9.14 µM, the GI50 [38] was 3.43 µM and the TGI [38] was 16.6 µM. For the same molecule, the GI50 [39] was 3.15 µM, the TGI [39] was 9.12 µM and the GI50 [40] was 9.62 µM. It also gave a GI50 [41] of 3.14 µM, a TGI [41] of 7.93 µM and a GI50 [42] of 2.81 µM. For the same molecule, the TGI [42] was 6.5 µM, the GI50 [43] was 14.9 µM and the TGI [43] was 20.2 µM. For the same molecule, the GI50 [44] was 4.57 µM, the TGI [44] was 11.5 µM and the GI50 [45] was 1.75 µM. For the same molecule, the TGI [45] was 3.99 µM, the GI50 [46] was 4.52 µM and the TGI [46] was 14.9 µM. It also gave a GI50 [47] of 3.64 µM, a TGI [47] of 8.99 µM and a GI50 [48] of 3.67 µM. For the same molecule, the TGI [48] was 7.05 µM, the GI50 [49] was 1.93 µM and the TGI [49] was 3.43 µM. It also gave a GI50 [50] of 4.38 µM, a TGI [50] of 8.24 µM and a GI50 [51] of 4.97 µM. It also gave a TGI [51] of 11.2 µM, a GI50 [52] of 0.105 µM and a TGI [52] of 0.802 µM. The GI50 [53] was 1.38 µM, the TGI [53] was 2.68 µM and the GI50 [54] was 6.2 µM. It also gave a TGI [54] of 9.88 µM, a GI50 [55] of 15.5 µM and a TGI [55] of 21.1 µM. The GI50 [56] was 1.26 µM and the TGI [56] was 2.62 µM.
`Oc1ccc(-c2nc(-c3ccc(F)cc3)c(-c3ccncc3)[nH]2)cc1` was tested, and the GI50 [1] was 8.47 µM, the TGI [1] was 22.1 µM and the GI50 [2] was 12.5 µM. It also gave a TGI [2] of 27.1 µM, a GI50 [57] of 10.6 µM and a TGI [57] of 22.5 µM. The GI50 [3] was 14.7 µM, the TGI [3] was 33.2 µM and the GI50 [4] was 20.2 µM. For the same molecule, the TGI [4] was 37.2 µM, the GI50 [5] was 15 µM and the TGI [5] was 31.5 µM. The GI50 [6] was 22.7 µM, the TGI [6] was greater than 100 µM and the GI50 [7] was 14.8 µM. The TGI [7] was 31.2 µM, the GI50 [8] was 1.62 µM and the TGI [8] was 20.9 µM. For the same molecule, the GI50 [9] was 23.6 µM, the TGI [9] was 47 µM and the GI50 [10] was 32.9 µM. It also gave a TGI [10] greater than 85.4 µM, a GI50 [11] of 7.98 µM and a TGI [11] greater than 48.4 µM. For the same molecule, the GI50 [58] was 23.9 µM, the TGI [58] was 40.8 µM and the GI50 [12] was 5.85 µM. For the same molecule, the TGI [12] was 20.9 µM, the GI50 [13] was 7.27 µM and the TGI [13] was 22.4 µM. It also gave a GI50 [14] of 15.3 µM, a TGI [14] of 28.9 µM and a GI50 [15] of 19.2 µM. It also gave a TGI [15] greater than 57.2 µM, a GI50 [16] of 18.3 µM and a TGI [16] of 46.2 µM. For the same molecule, the GI50 [59] was 20.2 µM, the TGI [59] was 46.6 µM and the GI50 [17] was 15.4 µM. It also gave a TGI [17] of 32.9 µM, a GI50 [18] of 41.7 µM and a TGI [18] greater than 100 µM. The GI50 [19] was 20.7 µM, the TGI [19] was greater than 60 µM and the GI50 [20] was 18.7 µM. For the same molecule, the TGI [20] was greater than 57 µM, the GI50 [21] was 14.9 µM and the TGI [21] was 29 µM. It also gave a GI50 [22] of 17.6 µM, a TGI [22] of 35.8 µM and a GI50 [23] of 17.5 µM. It also gave a TGI [23] of 33.1 µM, a GI50 [24] of 47.5 µM and a TGI [24] greater than 100 µM. It also gave a GI50 [25] of 23.5 µM, a TGI [25] of 38.4 µM and a GI50 [26] of 15.9 µM. The TGI [26] was 60.4 µM, the GI50 [27] was 10.5 µM and the TGI [27] was 24.2 µM. For the same molecule, the GI50 [28] was 18.8 µM, the TGI [28] was 57.3 µM and the GI50 [29] was 3.62 µM. The TGI [29] was 16.8 µM, the GI50 [30] was 18.6 µM and the TGI [30] was 48.3 µM. It also gave a GI50 [31] of 20 µM, a TGI [31] greater than 53.3 µM and a GI50 [32] of 12.2 µM. The TGI [32] was 31.5 µM, the GI50 [33] was 21.9 µM and the TGI [33] was greater than 54 µM. The GI50 [34] was 10.1 µM, the TGI [34] was 21.8 µM and the GI50 [35] was 18.7 µM. It also gave a TGI [35] of 39.4 µM, a GI50 [37] of 5.7 µM and a TGI [37] of 21 µM. The GI50 [38] was 10.4 µM, the TGI [38] was 44 µM and the GI50 [39] was 12.9 µM. For the same molecule, the TGI [39] was 26.6 µM, the GI50 [40] was 17.6 µM and the TGI [40] was 31.8 µM. It also gave a GI50 [41] of 15.7 µM, a TGI [41] of 31.3 µM and a GI50 [42] of 3.34 µM. For the same molecule, the TGI [42] was 9.1 µM, the GI50 [43] was 7.46 µM and the TGI [43] was 22.2 µM. For the same molecule, the GI50 [44] was 21.3 µM, the TGI [44] was 52.5 µM and the GI50 [45] was 5.38 µM. It also gave a TGI [45] of 13.1 µM, a GI50 [60] of 29.2 µM and a TGI [60] of 85.4 µM. For the same molecule, the GI50 [46] was 44.3 µM, the TGI [46] was greater than 100 µM and the GI50 [47] was 16.4 µM. The TGI [47] was 46.2 µM, the GI50 [48] was 4.59 µM and the TGI [48] was 19.3 µM. The GI50 [49] was 16.3 µM, the TGI [49] was 30 µM and the GI50 [50] was 18.8 µM. The TGI [50] was greater than 100 µM, the GI50 [51] was 19.2 µM and the TGI [51] was greater than 52.1 µM. For the same molecule, the GI50 [52] was 14.6 µM, the TGI [52] was 27.7 µM and the GI50 [53] was 10.3 µM. The TGI [53] was 22.1 µM, the GI50 [54] was 19 µM and the TGI [54] was 42.9 µM. The GI50 [55] was 13 µM, the TGI [55] was 32.7 µM and the GI50 [56] was 11.9 µM. It also gave a TGI [56] of 24.3 µM.
